Experimental data published in patent US12018305B2, “Process for production of nigericin from Streptomyces sp. MCC-0151” (Council of Scientific & Industrial Research, priority 2018, dated 2024).
In brackets after ≈: the same amount, converted by molar mass. Where two headings read alike, the source gives them in different places.

Assays:
in vivo = test: in vivo; parameters: species or system Sprague Dawley rats; conditions: male, Sprague Dawley, rat
Experimental: Oral solution bioavailability was 2%.
Plasma Pharmacokinetics study of Nigericin was carried out using three different routes of administration i.e. Intravenous (IV), Oral (O) and Intraperitoneal (IP). Based on above study, the intraperitoneal route of administration was selected to study the toxicokinetic profiling of Nigericin.

[1] = system: Listeria monocytogenes (ATCC 19111); test: Antibacterial activity (MIC) against Listeria monocytogenes; format: cell-based; conditions: ATCC19111, range stated over five gram-positive microorganisms, read-out: minimum inhibitory concentration (MIC)
Description: (§1) FIG. 1A depicts the inhibition of S. aureus growth at varying concentrations of nigericin from Streptomyces sp. MCC-0151. FIG. 1B depicts the antibacterial activity of nigericin from Streptomyces sp. MCC0151 against S. aureus.

[2] = system: Micrococcus luteus (ATCC 11880); test: Antibacterial activity (MIC) against Micrococcus luteus; format: cell-based; conditions: ATCC11880, range stated over five gram-positive microorganisms, read-out: minimum inhibitory concentration (MIC)
Description: as §1

[3] = Toxicokinetic study, 14-day repeated intraperitoneal administration in Sprague-Dawley rats; format: in vivo; conditions: for Tmax / AUClast / Cmax / AUC(0-t) / Cmax at 14 day / Tmax at 14 day: Sprague-Dawley, ip; for AUC(0-t): AUClast
Experimental: (§2) A 14-day repeat-intraperitoneal administration protocol was used for carrying out toxicokinetic studies with nigericin. Male and female animals were divided into three groups each based on the dose of nigericin administered (0.5, 1.5 and 5 mg/kg/day). Each group received the administration of the compound at the same dose every day for 14 days. The toxicokinetic parameters were quantified following the first (i.e., day-1) and last (i.e., day-14) administration of nigericin, and the findings are tabulated in Table-3. Following administration on day-1, nigericin was quantifiable in the plasma of the animals for up to 24 h, in all three dose-categories, in both genders. After the administration of the second dose on day-14, plasma concentrations were quantifiable up to 8 h for 0.5 mg/kg/day dose category and up to 24 h for 1.5 mg/kg/day dose category, in both genders.

Sprague-Dawley rats = test: 14-day repeated intraperitoneal dose toxicity in Sprague-Dawley rats; format: in vivo; conditions: for mortality: female rats, 5 mg/kg/day IP, before Day 14, 5 mg/kg/day
Experimental: as §2
The 5 mg/kg/day was lethal in females.

P. falciparum strain 3D7 = test: Antimalarial activity: inhibition of blood-stage malaria parasite growth (SybrGreen I); format: cell-based; conditions: Plasmodium falciparum, 60 h incubation
Experimental: Asexual stage of P. falciparum strain 3D7 (received as a gift from collaborator team) was maintained under standard conditions at 2% hematocrit with 0+ human erythrocytes (Blood obtained from Poona Serological Trust Blood Bank, Pune) in RPMI1640 containing 15 mM HEPES, 50 mg/L Gentamicin sulfate 10 mg/L hypoxanthine, 2 g/L sodium bicarbonate (Sigma-Aldrich) and 2.5 g/L AlbuMAX II (Thermo Fisher Scientific). Parasites were synchronized using 5% sorbitol (Sigma-Aldrich) for the enrichment of ring-stage parasite. In brief, P. falciparum cultures were collected by centrifugation at 1,000 g for 5 min at 25° C. and the parasitized RBC pellet was resuspended 5% sorbitol, followed by incubation at 37° C. for 10 min. Following incubation, the cells were pelleted and washed with complete medium, prior to placing the parasites back into culture flasks at 2% hematocrit and 2% parasitemia.
Assays were typically set up in 96-well plate format and 2% of parasitized culture was used per well. The stock solution of the nigericin was prepared in DMSO, and so 0.5% DMSO (equivalent to the DMSO present in the nigericin-treated samples) treatment was used as a control. […]

[4] = system: Staphylococcus epidermidis (ATCC 12228); test: Antibacterial activity (MIC) against Staphylococcus epidermidis; format: cell-based; conditions: ATCC12228, range stated over five gram-positive microorganisms, read-out: minimum inhibitory concentration (MIC)
murine splenocytes = format: cell-based
Description: FIG. 3 depicts a comparison of the in-vitro toxicity of nigericin isolated from Streptomyces sp. MCC-0151 and commercially available Nigericin on murine splenocytes. ‘▴’ represents nigericin from Streptomyces sp. MCC 0151 and ‘▾’ represents standard Nigericin.
MCCO151 and Sigma standard nigericin. Nigericin produced from Streptomyces sp.

[5] = system: Bacillus cereus (ATCC 11778); test: Antibacterial activity (MIC) against Bacillus cereus; format: cell-based; conditions: ATCC11778, range stated over five gram-positive microorganisms, read-out: minimum inhibitory concentration (MIC)
[6] = system: Staphylococcus aureus (ATCC 29737); test: Antibacterial activity (MIC) against Staphylococcus aureus; format: cell-based
Description: as §1

[7] = female, rat, in vivo, 0.5 mg/kg/day
[8] = female, rat, in vivo, 1.5 mg/kg/day
[9] = male, rat, in vivo, 0.5 mg/kg/day, Cmax
[10] = male, rat, in vivo, 0.5 mg/kg/day, Tmax
[11] = male, rat, in vivo, 1.5 mg/kg/day
[12] = male, rat, in vivo, 1.5 mg/kg/day, Cmax
[13] = male, rat, in vivo, 1.5 mg/kg/day, Tmax
[14] = male, rat, in vivo, 5 mg/kg/day
[15] = male, rat, in vivo, 5 mg/kg/day, Cmax
[16] = male, rat, in vivo, 5 mg/kg/day, Tmax
[17] = 14-day repeated IP, conclusion of study

Compound: CO[C@@H]1C[C@@H](C[C@H]2CC[C@H](C)[C@H]([C@@H](C)C(=O)O)O2)O[C@]2(O[C@](C)([C@H]3CC[C@@](C)([C@@H]4O[C@@H]([C@H]5O[C@@](O)(CO)[C@H](C)C[C@@H]5C)C[C@@H]4C)O3)C[C@H]2C)[C@@H]1C [nigericin]
- Tmax (in vivo; ip, 2 mg/kg): 15 min
- plasma concentrations quantifiable up to (in vivo; ip, 2 mg/kg): up to 24 hr
- Vss relative to normal volume of total body water (0.7 L/kg) (in vivo; iv, 2 mg/kg): 2.3 fold
- clearance (in vivo; iv, 2 mg/kg): 15.1 mL/min/kg
- half-life (in vivo; iv, 2 mg/kg): 212 min
- Tmax (in vivo; po, 10 mg/kg): 37.8 min
- bioavailability (in vivo; po, 10 mg/kg): 2%
- plasma concentrations quantifiable up to (in vivo; po, 10 mg/kg): up to 24 hr
- MIC [1]: 0.25 to 0.5 µM (≈ 0.181 to 0.362 µg/mL)
- MIC [2]: 0.25 to 0.5 µM (≈ 0.181 to 0.362 µg/mL)
- male/female exposure ratio (AUClast) ([3]; Day 1, 0.5 mg/kg/day): 2.11
- male/female exposure ratio (AUClast) ([3]; Day 1, 1.5 mg/kg/day): 0.68
- male/female exposure ratio (AUClast) ([3]; Day 1, 5 mg/kg/day): 1.15
- male/female exposure ratio (AUClast) ([3]; Day 14, 0.5 mg/kg/day): 0.90
- male/female exposure ratio (AUClast) ([3]; Day 14, 1.5 mg/kg/day): 1.21
- Tmax ([3]; rat, in vivo, Mean Tmax across the doses): 4.8 to 25.2 min
- accumulation following repeated intraperitoneal dose administration ([3]; across the doses, both genders): No trend of accumulation
- quantifiable in plasma for up to ([3]; day-1, all three doses (0.5, 1.5, 5 mg/kg/day IP), both genders): up to 24 h
- accumulation ratio (AUClast) on Day 14 ([3]; female, 0.5 mg/kg/day): 1.04
- accumulation ratio (AUClast) on Day 14 ([3]; female, 1.5 mg/kg/day): 0.51
- Dose exposure ratio ([3]; female, Day 1, dose increase 0.5 to 1.5 mg/kg/day): 5.91
- Dose exposure ratio ([3]; female, Day 1, dose increase 1.5 to 5 mg/kg/day): 2.33
- Dose exposure ratio ([3]; female, Day 14, dose increase 0.5 to 1.5 mg/kg/day): 2.89
- AUClast [3, 7]: 549.87 ng·h/mL
- Cmax [3, 7]: 222.17 ng/mL
- AUC(0-t) [3, 7]: 527 ng·h/mL
- Cmax ([3]; female, rat, in vivo, 0.5 mg/kg/day, Cmax): 188 ng/mL
- Tmax ([3]; female, rat, in vivo, 0.5 mg/kg/day, Tmax): 19.8 min
- AUClast [3, 8]: 1589.38 ng·h/mL
- Cmax [3, 8]: 710.63 ng/mL
- AUC(0-t) [3, 8]: 3120 ng·h/mL
- Cmax ([3]; female, rat, in vivo, 1.5 mg/kg/day, Cmax): 840 ng/mL
- AUC(0-t) ([3]; female, rat, in vivo, 5 mg/kg/day): 7260 ng·h/mL
- Cmax ([3]; female, rat, in vivo, 5 mg/kg/day, Cmax): 2440 ng/mL
- Tmax ([3]; female, rat, in vivo, 5 mg/kg/day, Tmax): 19.8 min
- accumulation ratio (AUClast) on Day 14 ([3]; male, 0.5 mg/kg/day): 0.44
- accumulation ratio (AUClast) on Day 14 ([3]; male, 1.5 mg/kg/day): 0.90
- accumulation ratio (AUClast) on Day 14 ([3]; male, 5 mg/kg/day): 0.98
- Dose exposure ratio ([3]; male, Day 1, dose increase 0.5 to 1.5 mg/kg/day): 1.91
- Dose exposure ratio ([3]; male, Day 1, dose increase 1.5 to 5 mg/kg/day): 3.93
- Dose exposure ratio ([3]; male, Day 14, dose increase 0.5 to 1.5 mg/kg/day): 3.89
- Dose exposure ratio ([3]; male, Day 14, dose increase 1.5 to 5 mg/kg/day): 4.26
- Cmax [3, 9]: 403 ng/mL
- Cmax at 14 day [3, 9]: 200 ng/mL
- Tmax [3, 10]: 15 min
- Tmax at 14 day [3, 10]: 16.8 min
- AUClast [3, 11]: 2126.23 ng·h/mL
- AUC(0-t) [3, 11]: 1920 ng·h/mL
- Cmax [3, 12]: 830 ng/mL
- Cmax at 14 day [3, 12]: 815 ng/mL
- Tmax [3, 13]: 19.8 min
- Tmax at 14 day [3, 13]: 4.8 min
- AUClast [3, 14]: 8347.82 ng·h/mL
- AUC(0-t) [3, 14]: 8190 ng·h/mL
- Cmax [3, 15]: 2390 ng/mL
- Cmax at 14 day [3, 15]: 3060 ng/mL
- Tmax [3, 16]: 19.8 min
- Tmax at 14 day [3, 16]: 19.8 min
- plasma exposure (AUClast) with increase in dose ([3]; rat, in vivo): dose-related increase
- abnormal clinical signs (Sprague-Dawley rats; 0.5 mg/kg/day IP, 14 consecutive days): did not result in abnormal clinical signs
- dose that can be lethal (Sprague-Dawley rats; [17]): above 5 mg/kg
- dose that will not cause any clinical adversity (Sprague-Dawley rats; [17]): < 1.5 mg/kg
- mortality (Sprague-Dawley rats): Mortality was observed
- mortality (Sprague-Dawley rats; listed as Nigericin): lethal
- mortalities (Sprague-Dawley rats; up to 1.5 mg/kg/day IP, 14 consecutive days): did not result in
- effect on ophthalmoscopy, coagulation, urinalysis and reticulocytes count (Sprague-Dawley rats; up to highest surviving dose 1.5 mg/kg/day IP): no test item related effect
- IC50 (P. falciparum strain 3D7; read-out: IC50 against P. falciparum): ~0.986 nM
- EC50 (P. falciparum strain 3D7; blood-stage parasite growth, n=3): 2.4 nM
- MIC [4]: 0.25 to 0.5 µM (≈ 0.181 to 0.362 µg/mL)
- toxicity against murine splenocytes compared to commercially available nigericin (Sigma) (murine splenocytes): no statistically significant difference
- MIC [5]: 0.25 to 0.5 µM (≈ 0.181 to 0.362 µg/mL)
- MIC ([6]; ATCC29737, against Staphylococcus aureus, read-out: MIC): 0.21 µg/mL
- MIC ([6]; ATCC29737, against Staphylococcus aureus, read-out: MIC Conc.): 0.288 µM
- MIC ([6]; Staphylococcus aureus, ATCC29737, range stated over five gram-positive microorganisms, read-out: minimum inhibitory concentration (MIC)): 0.25 to 0.5 µM
- MIC ([6]; against Staphylococcus aureus, read-out: MIC): 0.21 µg/mL
